One block for each molecule: values may come before it.
How the values were obtained:
Src = Src (Homo sapiens, UniProt P12931); assay: Kinase activity assay using Src as enzyme; format: biochemical; details: duplicate, means ± SEM
Experimental: (§1) With these coumarins in hand, we performed kinase assay using MARK4 catalytic domain as enzyme to test the MARK4 inhibitory activity of these samples. […] To characterize the selectivity of compound 50, we performed kinase activity assay by using PDK1, AKT1, Src, and MARK4 as enzyme.
(§2) The kinase activity of MARK4 was measured via ADP-Glo™ kinase assay kit (Promega, USA) under manufacturer's instruction. The recombinant MARK4 catalytic domain was used as kinase. MARK4 (5 nM) activity was tested in a reaction (10 μL) containing 25 mM Tris (pH 7.6), 10 mM MgCl2, 150 mM NaCl, 1 mM EDTA, 1 mM DTT, 100 μM ATP, 5 μM MAP4 and varied concentrations of samples for 30 min. The reaction progress was monitored on Thermo Scientific Varioskan Flash Multimode Reader. Each data point was collected in duplicate and kinetic parameters were obtained using GraphPad Prism v6.0 software.

MARK4 catalytic domain [1] = molecular target: T1, MARK4 catalytic domain (Homo sapiens, UniProt Q96L34); assay: Kinase activity assay (ADP-Glo) using MARK4 as enzyme; format: biochemical; details: for IC50: MARK4 5 nM, 100 μM ATP, 5 μM MAP4, 30 min, duplicate, means ± SEM
T1 construct: The recombinant MARK4 catalytic domain was used as kinase; made in house; host or cells: E. coli BL21 (DE3)
T1 sequence (Q96L34 59-310 limits assumed): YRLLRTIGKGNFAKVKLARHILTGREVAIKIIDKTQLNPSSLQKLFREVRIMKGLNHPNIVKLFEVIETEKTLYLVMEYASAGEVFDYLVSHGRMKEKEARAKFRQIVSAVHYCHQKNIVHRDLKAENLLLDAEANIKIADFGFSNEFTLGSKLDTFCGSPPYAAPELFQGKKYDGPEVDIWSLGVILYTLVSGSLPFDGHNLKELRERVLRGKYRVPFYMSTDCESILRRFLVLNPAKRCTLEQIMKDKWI
Experimental: MARK4 catalytic domain sequence was subcloned into pET-28a vector. Protein expression in E. coli. BL21 (DE3) was induced by IPTG overnight at 16°C, and the cells were then pelleted by centrifugation at 4,000 rpm for 15 min and resuspended in 20 mL buffer (20 mM Tris-HCl, 150 mM NaCl, 25 mM imidazole pH 8.0). Proteins were purified by nickel-affinity chromatography followed by thrombin cleavage. The proteins were further purified by size-exclusion chromatography using a Superdex 75 column (GE Healthcare).
as §2

MARK4 = molecular target: MARK4; parameters: method as in Naz et al., 2015; details: ref Naz et al., 2015; read-out: Kd between BX-795 and MARK4; cited from earlier work
PDK1 = molecular target: T2, PDK1 (Homo sapiens, UniProt O15530); assay: Kinase activity assay using PDK1 as enzyme; format: biochemical; details: duplicate, means ± SEM
T2 sequence (O15530 1-556): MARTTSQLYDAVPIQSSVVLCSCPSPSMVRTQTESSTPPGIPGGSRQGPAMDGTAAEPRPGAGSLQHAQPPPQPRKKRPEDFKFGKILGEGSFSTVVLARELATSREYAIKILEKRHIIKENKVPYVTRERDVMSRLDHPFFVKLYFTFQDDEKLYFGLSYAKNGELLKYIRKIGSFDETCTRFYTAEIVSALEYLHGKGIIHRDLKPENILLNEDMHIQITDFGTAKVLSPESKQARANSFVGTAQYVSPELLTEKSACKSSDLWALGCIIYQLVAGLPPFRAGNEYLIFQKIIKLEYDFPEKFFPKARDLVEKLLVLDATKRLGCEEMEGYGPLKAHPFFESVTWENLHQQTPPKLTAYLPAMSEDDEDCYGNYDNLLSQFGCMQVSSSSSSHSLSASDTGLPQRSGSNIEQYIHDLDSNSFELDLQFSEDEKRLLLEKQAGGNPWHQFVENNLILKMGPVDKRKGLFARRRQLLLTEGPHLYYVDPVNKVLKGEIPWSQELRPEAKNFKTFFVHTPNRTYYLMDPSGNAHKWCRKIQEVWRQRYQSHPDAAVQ
Experimental: as §1, §2

AKT1 = AKT1 (Homo sapiens, UniProt P31749); assay: Kinase activity assay using AKT1 as enzyme; format: biochemical; details: duplicate, means ± SEM
Chain of AKT1 (P31749 whole entry, species assumed): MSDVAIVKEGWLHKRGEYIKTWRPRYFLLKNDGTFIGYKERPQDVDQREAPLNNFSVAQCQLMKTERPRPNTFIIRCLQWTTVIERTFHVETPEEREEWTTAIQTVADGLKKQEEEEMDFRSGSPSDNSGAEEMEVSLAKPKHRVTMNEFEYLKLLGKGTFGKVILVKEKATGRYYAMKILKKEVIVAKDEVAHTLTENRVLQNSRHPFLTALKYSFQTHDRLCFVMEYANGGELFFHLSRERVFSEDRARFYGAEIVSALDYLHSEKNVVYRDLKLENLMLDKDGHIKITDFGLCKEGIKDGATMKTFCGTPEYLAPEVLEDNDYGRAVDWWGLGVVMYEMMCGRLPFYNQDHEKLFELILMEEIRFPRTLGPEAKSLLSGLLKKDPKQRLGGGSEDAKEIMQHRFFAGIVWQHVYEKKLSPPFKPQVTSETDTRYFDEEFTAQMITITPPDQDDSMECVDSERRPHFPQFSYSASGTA
Experimental: as §1, §2

SMMC-7721 cells [2] = assay: Cell apoptosis assay (Annexin V-FITC/PI flow cytometry) in SMMC-7721 cells; format: cell-based; details: 15 μM, 36 h
Experimental: (§3) HCC cells (2 × 10^5 cells/well) were plated in a 6-well plate and treated with samples at 37°C for 36 h. After incubation, the cells were harvested and washed with ice-cold PBS. Annexin V-FITC-PI apoptosis detection kit (Abcam, USA) was used for a direct observation of viable, early apoptotic, and late apoptotic cells. Annexin V-FITC and propidium iodide were added according to the manufacturer's instructions, and the samples were incubated in the dark for 15 min. The apoptosis ratio was analyzed using BD FACSCalibur flow cytometry.

HepG2 cells [3] = assay: Colony formation assay of HepG2 cells; format: cell-based; details: compared with vehicle
MARK4 catalytic domain [4] = molecular target: T1, MARK4 catalytic domain; assay: Surface plasmon resonance (SPR) assay; format: binding; details: different sample concentrations, read-out: dissociation constant (Kd value) toward MARK4
Experimental: The interaction of small molecule with MARK4 was monitored by surface plasmon resonance (SPR) using a BIAcore T100 instrument (GE Healthcare, USA). In brief, recombinant MARK4 catalytic domain was immobilized on a carboxyl methylated dextran sensor chip (Sensor Chip CM3). A flow channel blocked by ethanolamine was used as control surface. The specific interaction of samples with the immobilized MARK4 catalytic domain was assessed. All samples were analyzed at a flow rate of 30 μL/min with 10 mM HEPES running buffer and contact time of 260 s. The surface was washed and regenerated with a 10 mM glycine-HCl buffer at pH 3.0 followed by a 30 min waiting time for dissolution after each experiment. The analyses were performed in BIAcore T100 evaluation software, version 2.0.2 (GE Healthcare, USA).

MARK4 catalytic domain [5] = molecular target: T1, MARK4 catalytic domain; assay: Thermal shift assay; format: binding; details: sample 1 μM
Experimental: Recombinant MARK4 catalytic domain was diluted with PBS and divided into two aliquots, with one aliquot being treated with sample (1 μM) and the other aliquot with vehicle. After 20 min of incubation at room temperature, the respective mixtures were divided into smaller (40 μL) aliquots and heated individually at different temperatures for 3 min, followed by cooling at room temperature for 3 min. The appropriate temperatures were determined in preliminary CETSA experiments. The heated mixtures were centrifuged at 20,000 × g at 4°C for 20 min in order to separate the soluble fractions from precipitates. The supernatants were transferred to new microtubes and analyzed by HPLC.

HepG2 cells [6] = assay: Cell apoptosis assay (Annexin V-FITC/PI flow cytometry) in HepG2 cells; format: cell-based
Experimental: as §3

SMMC-7721 cells [7] = assay: Cell viability assay (MTT) in SMMC-7721 cells; format: cell-based
Experimental: (§4) HepG2 and SMMC-7721 cells were cultured in DMEM medium (Gibco) supplemented with 10% FBS (Gibco, USA). For transient transfection, cells were transfected with DNA by Lipofectamine 2000 (Thermo fisher, USA).
(§5) HCC cells (100 μL/each well, 20,000 cells/mL) were seeded in a 96-well culture plate and allowed to grow for 24 h in DMEM medium supplemented with 10% FBS and 1% penicillin/streptomycin sulfate. The cells were then treated with drugs or vehicle control and incubated in a 5% CO2 incubator for indicated time. At the end of incubation, 10 μL of MTT stock solution (5 mg/mL) was added into each well. The plate was continued to be incubated at 37°C for 4 h before the medium was removed. Then, DMSO (100 μL) was added into each well, followed by thorough shaking. The absorbance of the formazan product was measured at 570 nm on Thermo Scientific Varioskan Flash Multimode Reader. The IC50 value was obtained by fitting dose-response data to a three parametric non-linear regression model using GraphPad Prism 6.0 software.

HepG2 cells [8] = assay: Cell viability assay (MTT) in HepG2 cells; format: cell-based
Experimental: as §4, §5

MAP4 phosphorylation = assay: Immunoblotting of MAP4 phosphorylation in HepG2 cell lysates; format: cell-based; details: HepG2 cells, 15 μM, 36 h
Experimental: HepG2 cells (2 × 10^5 cells/well) were plated in a 6-well plate and treated with compound 50 (15 μM) and vehicle at 37°C for 36 h. Cells were harvested, washed with physiological saline, and lysed with RIPA lysis buffer (Beyotime) including phosphatase and protease cocktail (Bimake). Protein was quantified by BCA protein assay kit (Bestbio) and subjected to SDS-PAGE. The separated proteins were transferred onto PVDF membranes and probed with antibody (anti-p-MAP4, anti-MAP4, and anti-actin) and peroxidase-conjugated secondary antibody, which was followed by enhanced chemiluminescence detection (Amersham Biosciences).

HEK-293T cells = assay: Cell viability assay in HEK-293T cells; format: cell-based; details: human normal HEK-293T cells

Chain of Src (P12931 whole entry, species assumed, the tested form may be a part): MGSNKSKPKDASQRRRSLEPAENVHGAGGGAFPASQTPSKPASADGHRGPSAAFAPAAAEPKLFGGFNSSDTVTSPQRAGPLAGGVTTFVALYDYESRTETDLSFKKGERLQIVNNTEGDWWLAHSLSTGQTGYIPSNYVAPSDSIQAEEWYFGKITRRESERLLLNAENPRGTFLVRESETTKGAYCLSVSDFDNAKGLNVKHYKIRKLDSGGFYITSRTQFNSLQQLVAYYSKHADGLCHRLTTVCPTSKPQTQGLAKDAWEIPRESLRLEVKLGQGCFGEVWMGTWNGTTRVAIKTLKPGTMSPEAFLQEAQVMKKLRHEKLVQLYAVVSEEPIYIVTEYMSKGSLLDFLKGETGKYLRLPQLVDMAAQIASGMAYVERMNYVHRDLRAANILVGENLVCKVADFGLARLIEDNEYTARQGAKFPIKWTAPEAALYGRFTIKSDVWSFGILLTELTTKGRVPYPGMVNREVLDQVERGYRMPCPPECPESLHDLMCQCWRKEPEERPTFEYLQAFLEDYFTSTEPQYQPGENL

IC50 (Src): 5.87 ± 0.405 µM
IC50 (MARK4 catalytic domain [1]): 4.99 ± 0.812 µM
IC50 (PDK1): 1.68 ± 0.192 µM
IC50 (AKT1): 2.87 ± 0.269 µM
SMILES: O=C(NCCCNc1nc(Nc2cccc(NC(=O)N3CCCC3)c2)ncc1I)c1cccs1 [BX-795, reference compound]
Kd (MARK4): 6.46 µM

Kd (MARK4 catalytic domain [4]): 346 nM
IC50 (Src): 19 ± 1.32 µM
temperature shift of MARK4 thermal stability (ΔT) (MARK4 catalytic domain [5]): 3.13 °C
IC50 (SMMC-7721 cells [7]; Homo sapiens, MTT): 12.8 µM
IC50 (MARK4 catalytic domain [1]): 1.3 ± 0.102 µM
inhibition at 10 µM (MARK4 catalytic domain [1]; at 10 μM): ~80%
IC50 (HepG2 cells [8]; Homo sapiens, HepG2 cells, MTT): 11.2 µM
IC50 (PDK1): 5.97 ± 0.289 µM
IC50 (AKT1): 11.8 ± 0.336 µM
SMILES: COc1ccc2oc(=O)c(C(=O)c3ccccc3)cc2c1 [Compound 50, 3-benzoyl-6-methoxy-2H-chromen-2-one]
apoptosis: cell numbers of early and late apoptotic cells (SMMC-7721 cells [2]): obviously increased
colony formation of HepG2 cells (HepG2 cells [3]): significantly suppressed
apoptosis, single agent (HepG2 cells [6]; 2.5 μM alone): unable to trigger distinct apoptosis
apoptosis: cell numbers of early and late apoptotic cells (HepG2 cells [6]; 15 μM, 36 h): obviously increased
apoptosis, combination with paclitaxel (HepG2 cells [6]; compound 50 2.5 μM in combination with paclitaxel 2.5 μM): activated HCC apoptosis
viability at 2.5 µM (SMMC-7721 cells [7]; Homo sapiens, 2.5 μM compound alone, read-out: cell viability upon treatment): > 80%
inhibitory activity of paclitaxel in the presence of compound (SMMC-7721 cells [7]; varied paclitaxel concentrations with 2.5 μM compound 50): remarkably enhanced
effect of MARK4-knockdown on anti-proliferative activity (HepG2 cells [8]; HepG2 cells transiently transfected with MARK4-knockdown vs control vectors): significantly attenuated
inhibitory activity of paclitaxel in the presence of compound (HepG2 cells [8]; HepG2 cells, varied paclitaxel concentrations with 2.5 μM compound 50): remarkably enhanced
viability at 2.5 µM (HepG2 cells [8]; Homo sapiens, HepG2 cells, 2.5 μM compound alone, read-out: cell viability upon treatment): > 80%
level of MAP4 phosphorylation (MAP4 phosphorylation): decreased
concentrations at which cell viability of HEK-293T cells was suppressed (HEK-293T cells): > 50 µM

Source: article PMC6543911, “Discovery of Coumarin as Microtubule Affinity-Regulating Kinase 4 Inhibitor That Sensitize Hepatocellular Carcinoma to Paclitaxel” (Frontiers in Chemistry, 2019)
